Legend:
S. pneumoniae D39V [1] = assay: Bliss interaction score (quartile over a dose matrix) (fitness difference); higher = more antagonism (negative = synergy)
Method in brief: (§1)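 Quartiles summarise the Bliss score over technical, biological and donor/recipient replicates, where the score is observed minus expected fitness under a product model. Expected fitness uses single-drug values inferred from combination data. Fitness is OD595 at entry into stationary phase over the plate's robust no-drug mean, capped at 1.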

S. aureus Newman = assay: as above
Method in brief: as §1

B. subtilis 168 [2] = assay: as above
Method in brief: as §1

S. aureus DSM 20231 [3] = assay: as above
Method in brief: as §1

S. pneumoniae D39V [4] = assay: fitness (endpoint OD595 vs no drug) (fraction); higher = more growth
Method in brief: (§2)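 Cultures at OD595 0.01 were dispensed into 384-well plates in TSB, LB Lennox or CY and incubated at 37 °C. Every 30 min for 14 h, OD595 was read and corrected by the first reading. Fitness is the optical density at entry into stationary phase relative to the robust mean of no-drug control wells, capped at 1.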

B. subtilis 168 [5] = assay: as above
Method in brief: as §2

S. aureus DSM 20231 [6] = assay: as above
Method in brief: as §2
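Throughout, for Bliss interaction score (quartile over a dose matrix): first quartile when negative (synergy) and third quartile when positive (antagonism).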

CC(=O)NC[C@H]1CN(c2ccc(N3CCOCC3)c(F)c2)C(=O)O1 [Linezolid] + CC1=C\[C@@H](O)CC(=O)Cc2nc(co2)C(=O)N2CCC=C2C(=O)O[C@H](C(C)C)[C@H](C)/C=C/C(=O)NC\C=C\1 [Virginiamycin M1]
Settings | Bliss interaction score
B. subtilis 168 [2] | 0.0733
S. aureus DSM 20231 [3] | 0.0505
S. aureus Newman | 0.0286
S. pneumoniae D39V [1] | -0.0638

Settings | fitness
B. subtilis 168 [5], first compound 0.125 µg/mL, partner 0.0625 µg/mL | 0.57
B. subtilis 168 [5], first compound 0.125 µg/mL, partner 0.125 µg/mL | 0.572
B. subtilis 168 [5], first compound 0.125 µg/mL, partner 0.25 µg/mL | 0.578
B. subtilis 168 [5], first compound 0.25 µg/mL, partner 0.0625 µg/mL | 0.0596
B. subtilis 168 [5], first compound 0.25 µg/mL, partner 0.125 µg/mL | 0.0652
B. subtilis 168 [5], first compound 0.25 µg/mL, partner 0.25 µg/mL | 0.0843
B. subtilis 168 [5], first compound 0.5 µg/mL, partner 0.0625 µg/mL | 0.0436
B. subtilis 168 [5], first compound 0.5 µg/mL, partner 0.125 µg/mL | 0.0429
B. subtilis 168 [5], first compound 0.5 µg/mL, partner 0.25 µg/mL | 0.0502
S. aureus DSM 20231 [6], first compound 0.125 µg/mL, partner 0.0625 µg/mL | 0.884
S. aureus DSM 20231 [6], first compound 0.125 µg/mL, partner 0.125 µg/mL | 0.951
S. aureus DSM 20231 [6], first compound 0.125 µg/mL, partner 0.25 µg/mL | 0.826
S. aureus DSM 20231 [6], first compound 0.25 µg/mL, partner 0.0625 µg/mL | 0.589
S. aureus DSM 20231 [6], first compound 0.25 µg/mL, partner 0.125 µg/mL | 0.614
S. aureus DSM 20231 [6], first compound 0.25 µg/mL, partner 0.25 µg/mL | 0.638
S. aureus DSM 20231 [6], first compound 0.5 µg/mL, partner 0.0625 µg/mL | 0.186
S. aureus DSM 20231 [6], first compound 0.5 µg/mL, partner 0.125 µg/mL | 0.156
S. aureus DSM 20231 [6], first compound 0.5 µg/mL, partner 0.25 µg/mL | 0.196
S. pneumoniae D39V [4], first compound 0.105 µg/mL, partner 0.5 µg/mL | 0.849
S. pneumoniae D39V [4], first compound 0.105 µg/mL, partner 1 µg/mL | 0.881
S. pneumoniae D39V [4], first compound 0.105 µg/mL, partner 2 µg/mL | 0.856
S. pneumoniae D39V [4], first compound 0.2 µg/mL, partner 2 µg/mL | 0.775
S. pneumoniae D39V [4], first compound 0.21 µg/mL, partner 0.5 µg/mL | 0.763
S. pneumoniae D39V [4], first compound 0.21 µg/mL, partner 1 µg/mL | 0.756
S. pneumoniae D39V [4], first compound 0.21 µg/mL, partner 2 µg/mL | 0.769
S. pneumoniae D39V [4], first compound 0.4 µg/mL, partner 2 µg/mL | 0.677
S. pneumoniae D39V [4], first compound 0.42 µg/mL, partner 0.5 µg/mL | 0.496
S. pneumoniae D39V [4], first compound 0.42 µg/mL, partner 1 µg/mL | 0.486
S. pneumoniae D39V [4], first compound 0.42 µg/mL, partner 2 µg/mL | 0.39
S. pneumoniae D39V [4], first compound 0.8 µg/mL, partner 2 µg/mL | 0.458

one replicate
Settings | fitness
B. subtilis 168 [5], first compound 0.0625 µg/mL, partner 0.0625 µg/mL | 0.851
B. subtilis 168 [5], first compound 0.0625 µg/mL, partner 0.125 µg/mL | 0.915
B. subtilis 168 [5], first compound 0.0625 µg/mL, partner 0.25 µg/mL | 0.879
S. aureus DSM 20231 [6], first compound 0.125 µg/mL, partner 0.5 µg/mL | 0.873
S. aureus DSM 20231 [6], first compound 0.125 µg/mL, partner 1 µg/mL | 0.759
S. aureus DSM 20231 [6], first compound 0.25 µg/mL, partner 0.5 µg/mL | 0.675
S. aureus DSM 20231 [6], first compound 0.25 µg/mL, partner 1 µg/mL | 0.63
S. aureus DSM 20231 [6], first compound 0.5 µg/mL, partner 0.5 µg/mL | 0.262
S. aureus DSM 20231 [6], first compound 0.5 µg/mL, partner 1 µg/mL | 0.296
S. aureus DSM 20231 [6], first compound 1 µg/mL, partner 0.0625 µg/mL | 0.0385
S. aureus DSM 20231 [6], first compound 1 µg/mL, partner 0.125 µg/mL | 0.0443
S. aureus DSM 20231 [6], first compound 1 µg/mL, partner 0.25 µg/mL | 0.0419
S. pneumoniae D39V [4], first compound 0.2 µg/mL, partner 0.15 µg/mL | 0.829
S. pneumoniae D39V [4], first compound 0.2 µg/mL, partner 0.3 µg/mL | 0.825
S. pneumoniae D39V [4], first compound 0.2 µg/mL, partner 0.5 µg/mL | 0.861
S. pneumoniae D39V [4], first compound 0.2 µg/mL, partner 1 µg/mL | 0.81
S. pneumoniae D39V [4], first compound 0.4 µg/mL, partner 0.15 µg/mL | 0.738
S. pneumoniae D39V [4], first compound 0.4 µg/mL, partner 0.3 µg/mL | 0.721
S. pneumoniae D39V [4], first compound 0.4 µg/mL, partner 0.5 µg/mL | 0.785
S. pneumoniae D39V [4], first compound 0.4 µg/mL, partner 1 µg/mL | 0.67
S. pneumoniae D39V [4], first compound 0.8 µg/mL, partner 0.15 µg/mL | 0.546
S. pneumoniae D39V [4], first compound 0.8 µg/mL, partner 0.3 µg/mL | 0.577
S. pneumoniae D39V [4], first compound 0.8 µg/mL, partner 0.5 µg/mL | 0.562
S. pneumoniae D39V [4], first compound 0.8 µg/mL, partner 1 µg/mL | 0.376

CC(=O)NC[C@H]1CN(c2ccc(N3CCOCC3)c(F)c2)C(=O)O1 [Linezolid] + CCCCCCCCCC(=O)N[C@@H]1[C@H]([C@@H]([C@H](O[C@H]1OC2=C3C=C4C=C2OC5=C(C=C(C=C5)[C@H]([C@H]6C(=O)N[C@@H](C7=C(C(=CC(=C7)O)OC8[C@H]([C@H]([C@@H]([C@H](O8)CO)O)O)O)C9=C(C=CC(=C9)[C@H](C(=O)N6)NC(=O)[C@@H]4NC(=O)[C@@H]1C2=CC(=CC(=C2)OC2=C(C=CC(=C2)[C@H](C(=O)N[C@H](CC2=CC(=C(O3)C=C2)Cl)C(=O)N1)N)O)O)O)C(=O)O)O[C@H]1[C@@H]([C@H]([C@@H]([C@H](O1)CO)O)O)NC(=O)C)Cl)CO)O)O [Teicoplanin]
main component drawn
Settings | Bliss interaction score
B. subtilis 168 [2] | -0.0585
S. aureus DSM 20231 [3] | 0.109
S. aureus Newman | 0.116
S. pneumoniae D39V [1] | -0.0593

fitness, S. aureus DSM 20231 [6], main component drawn
Settings | first compound 0.125 µg/mL | first compound 0.25 µg/mL | first compound 0.5 µg/mL
partner 0.1562 µg/mL | 0.852 | 0.649 | 0.158
partner 0.3125 µg/mL | 0.989 | – | –
partner 0.625 µg/mL | ≥ 1 | – | –

S. aureus DSM 20231 [6], first compound 1 µg/mL, one replicate, main component drawn
Settings | fitness
partner 0.1562 µg/mL | 0.0359
partner 0.3125 µg/mL | 0.0319
partner 0.625 µg/mL | 0.0292

Source: the supplement of paper PMC10627819
